Experiment [1] has as its target human Werner helicase (WRN, amino acids 517-1235 with L1074F point mutation) (Homo sapiens (Human), UniProt Q14191, L1074F). Put plainly: WRN (BV08) ADP-Glo assay. The experiment is classed as biochemical. The conditions noted are these: human WRN (aa 517-1235, L1074F), read-out: ADP-Glo_hWRN_IC50. The source says:
Bovine skin gelatin (BSG), dimethyl sulfoxide (DMSO), Pluronic F-127 and tris(2-carboxyethyl)phosphine hydrochloride solution (TCEP) were purchased from Sigma-Aldrich (St. Louis, MO) at the highest level of purity possible. Bicine buffer solution was purchased from Alfa Aesar (Tewksbury, MA) and compound NSC-617145 was purchased from Tocris (Minneapolis, MN). DNA duplex was synthesized at BGI (Shenzhen, China) and was composed of strand 1 with the sequence 5′-[…]-3′ (SEQ ID NO.: 1) and strand 2 with the sequence 5′-[…]-3′ (SEQ ID NO.: 2). DNA strands were annealed by heating to 95° C. for 5 minutes followed by slow cooling to room temperature. Compounds in 100% DMSO (0.1 μl) were spotted into a 384-well white polystyrene Optiplate-384 (Perkin Elmer; Waltham, MA) assay plate using a LabCyte Echo 550 (Agilent; Santa Clara, CA). DMSO (0.1 μl) was added to columns 12, rows A-H and column 24, rows I-P for the maximum signal control. Compound NSC-617145 (0.1 μl) was added to columns 12, rows I-P and 24, rows A-H for the minimum signal control (100% inhibition). Compounds/DMSO were preincubated for 15 minutes at 25° C. with 5 μl 2×WRN (BV08), prepared as described below, in assay buffer containing 20 mM Bicine (pH=7.5), 1 mM MgCl2, 10 mM KCl, 0.1% Pluronic F-127, 0.005% BSG, 1 mM TCEP. The reaction was initiated by the addition of 5 μl 2× substrate mixture in assay buffer and incubated for 60 minutes at 25° C. The final concentrations of the assay components were 0.15 nM WRN, 5 μM ATP, and 0.1 nM DNA duplex. The final DMSO concentration was 1% and the reference compound concentration (NSC-617145) used for the minimal signal control was 20 μM. The reaction was stopped by the addition of the ADP-Glo Kit components (Promega; Madison, WI) as directed and the relative luminescence units (RLU) were read on an Envision 2104 (Perkin Elmer; Waltham, MA).
% inhibition calculation:
% INH=(RLU MAX−RLU sample)/(RLU MAX−RLU MIN))×100
Where RLU=relative luminescence units, sample=signal in sample well, and MIN and MAX are the respective minimum and maximum signal controls. Four-parameter IC50 fit equation:
Y=Bottom+(Top−Bottom)/(1+(IC50/X)^Hill Slope)
Where top and bottom are normally allowed to float but may be fixed at 100 or 0 respectively in a 3-parameter fit. Y is the % inhibition and X is the compound concentration.
Molecular Biology and virus production. The DNA encoding human Werner helicase (Uniprot Q14191, amino acids 517-1235 with L1074F point mutation) was generated with codon-optimization for E. coli expression and subcloned into the pFastBac vector with a TEV cleavable 8×His tag (WRN—BV08). The baculovirus from the expression plasmid WRN—BV08 was generated from transfection and amplification following the manufacturer's instructions.
Sf9 cells grown in SF900II media were infected with 1:200 WRN—BV08 P2 virus and incubated for protein expression for 72 h at 27° C. The WRN protein was purified using the following protocol. The cell pellets were thawed and resuspended in buffer A (50 mM Tris, pH 7.5, 500 mM NaCl, 1 mM TCEP, 10% Glycerol) supplemented with 0.5% CHAPS, 1 mM PMSF, […] Leupeptin, 1 μg/ml Pepstatin, and the Pierce Universal Nuclease and cocktail tablet. Cleared lysates were loaded onto a Ni Sepharose™ excel column and washed with buffer A and bound protein was eluted with buffer A supplemented with 300 mM imidazole. The eluted protein was dialyzed against buffer A and digested by His-tagged TEV (1:5 ratio) overnight at 4° C. ZnCl2 was added into the sample at final 15 μM before loading onto a second Ni Sepharose™ excel column. Untagged WRN protein was eluted from the column with buffer A supplemented with 20 mM imidazole, dialyzed overnight into buffer B (50 mM Tris, pH 7.5, 1 mM TCEP, 10% Glycerol) supplemented with 150 mM NaCl and loaded onto a Heparin column. Proteins were eluted with a step gradient of buffer B supplemented with 150 mM, 200 mM, 300 mM and 500 mM NaCl. […]
Background: ADP-Glo turns the ADP formed in a reaction into a luminescent signal.

Experiment [2] concerns p21 induction in HCT 116 cells. Put plainly: p21 induction in cells (In-Cell Western, p21/GAPDH ratio). The experiment is classed as cell-based. The conditions noted are these: Homo sapiens, 24 h compound incubation, read-out: p21_EC50. Here is the method:
The colon carcinoma cell line HCT 116 was obtained from ATCC and cultured in growth medium consisting of Mccoy's 5A Medium (Gibco 16600108) supplemented with 10% FBS (Transgene FS201-02) and 100 units/mL penicillin-streptomycin (Gibco 15140122) and maintained at 37° C. under 5% CO2. On the day of seeding, 2,000 cells in 30 μL of culture media were plated per well to Poly-D-Lysine 384 Well Black Clear Plates (Biocoat 356663) and incubated overnight at 37° C. under 5% CO2. The following day, compounds were serially diluted in DMSO for a total of 11 test concentrations. The typical starting concentration of compounds was 10 μM with 2-fold dilutions. Next, 150 nL of diluted compound was added in duplicate to the assay plate, using an Echo 655 (Labcyte). The plate was centrifuged at 500 RPM for 1 min and then incubated at 37° C. under 5% CO2 for 24 h. After 24 h, medium was removed, and cells were fixed by adding 40 μL of 4% paraformaldehyde solution to each well and incubated for 20 min at room temperature. The plate was then washed 4 times with 100 μL per well of wash buffer (PBS with 0.1% Tween-20) using a microplate washer. Next, 30 μL of ice-cold methanol was added to each well and the plate was incubated at −20° C. for 10 min. The plate was washed 4 times with 100 μL per well of wash buffer by a microplate washer, then 30 μL per well of blocking buffer ((Intercept PBS blocking buffer (LI-COR 927-70001) with 0.05% Tween-20)) was added and the plate was incubated at room temperature with shaking for 2 h. Next, to each test well, 20 μL of primary antibody solution (p21 Wafl/CIP (12D1) RabbitmAb (Cell Signaling Technologies 2947) diluted 1:1000 and GAPDH (D4C6R) Mouse mAb (Cell Signaling Technologies 97166) diluted 1:2000 in blocking buffer) was added and the plate was placed at 4° C., overnight. The following day, the plate was washed 5 times with 100 μL per well of wash buffer using a microplate washer for 5 min. 20 μL per well of secondary antibody (IRDye 680CW Goat anti-Mouse IgG (H+L) (LI-COR 926-68070) diluted 1:2000 in Blocking Buffer and IRDye 800CW Goat anti-Rabbit IgG (H+L) (LI-COR 926-32211) diluted 1:2000 in Blocking Buffer) was then added and the plate was stored for 2 h in the dark at room temperature with shaking. The plate was then washed 4 times with 100 μL per well of wash buffer again using a microplate washer. Finally, the p21 signal and the GAPDH signal were quantified using a LI-COR Odyssey CLx Imager machine reading at 800 nm and 700 nm, respectively. Each plate contained DMSO control (low control) and an internal reference WRN inhibitor (high control) respectively. For quantitation, the 800 nm/700 nm ratio was calculated for each well to give fold p21 induction and then percent activation for each compound well was calculated as follows (100×(ratio cpd well-ratio low control)/(ratio high control−ratio low control). EC50 values for each compound was generated after non-linear regression curve fitting using commercially available software.

The values below come from patent publication US20250129069A1, “TRIAZOLO WRN INHIBITORS” (Nimbus Wadjet, Inc., priority 2023, published 2025).

Sequence of human Werner helicase (WRN, amino acids 517-1235 with L1074F point mutation) (Q14191 other isoform, or with tags, fused parts or gaps L1074F (already in the parent)): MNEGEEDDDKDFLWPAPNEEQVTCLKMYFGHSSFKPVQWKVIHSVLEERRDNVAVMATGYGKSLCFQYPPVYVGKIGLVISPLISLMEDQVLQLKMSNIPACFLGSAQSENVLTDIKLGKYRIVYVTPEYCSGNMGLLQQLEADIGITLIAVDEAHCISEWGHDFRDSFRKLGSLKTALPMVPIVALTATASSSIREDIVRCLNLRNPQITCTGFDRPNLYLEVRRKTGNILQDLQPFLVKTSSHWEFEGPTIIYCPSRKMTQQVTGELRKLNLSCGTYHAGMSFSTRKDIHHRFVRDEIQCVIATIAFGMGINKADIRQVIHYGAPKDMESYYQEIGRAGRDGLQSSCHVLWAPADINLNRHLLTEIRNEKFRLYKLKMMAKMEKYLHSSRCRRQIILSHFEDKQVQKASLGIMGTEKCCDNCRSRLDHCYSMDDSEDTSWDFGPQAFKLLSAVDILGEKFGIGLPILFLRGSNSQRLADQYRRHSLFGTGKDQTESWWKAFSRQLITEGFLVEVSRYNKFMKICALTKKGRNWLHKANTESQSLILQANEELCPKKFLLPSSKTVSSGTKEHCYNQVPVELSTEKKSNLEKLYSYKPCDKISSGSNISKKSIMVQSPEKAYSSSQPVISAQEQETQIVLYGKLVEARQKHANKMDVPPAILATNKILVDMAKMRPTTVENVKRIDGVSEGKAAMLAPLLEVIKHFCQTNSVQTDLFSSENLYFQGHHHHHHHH

For the compound `CCc1c(N2CCN(C(=O)c3ncnc(C)c3O)[C@H]3CC[C@@H]32)c(=O)c2nn(-c3ccnc(OC)c3)nc2n1CC(=O)Nc1ccc(C(F)(F)F)cc1Cl` [Compound I-6, N-(2-chloro-4-(trifluoromethyl)phenyl)-2-(5-ethyl-6-((1S,6S)-5-(5-hydroxy-6-methylpyrimidine-4-carbonyl)-2,5-diazabicyclo[4.2.0]octan-2-yl)-2-(2-methoxypyridin-4-yl)-7-oxo-2,7-dihydro-4H-[1,2,3]triazolo[4,5-b]pyridin-4-yl)acetamide], the IC50 in experiment [1] is not above 5 nM.
Same read-out and setting: the value for `CCc1c(N2CCN(C(=O)c3ncnc(C)c3O)CC2)c(=O)c2nn(C3=CCOCC3)nc2n1CC(=O)Nc1ccc(C(F)(F)F)cc1Cl` [Compound I-13, N-(2-chloro-4-(trifluoromethyl)phenyl)-2-(2-(3,6-dihydro-2H-pyran-4-yl)-5-ethyl-6-(4-(5-hydroxy-6-methylpyrimidine-4-carbonyl)piperazin-1-yl)-7-oxo-2,7-dihydro-4H-[1,2,3]triazolo[4,5-b]pyridin-4-yl)acetamide] was 5 to 50 nM; that for `CCc1c(N2CCN(C(=O)c3ncnc(C)c3O)CC2)c(=O)c2nn(-c3cc(C)n(C)n3)nc2n1CC(=O)Nc1ccc(C(F)(F)F)cc1Cl` [Compound I-16, N-(2-chloro-4-(trifluoromethyl)phenyl)-2-(2-(1,5-dimethyl-1H-pyrazol-3-yl)-5-ethyl-6-(4-(5-hydroxy-6-methylpyrimidine-4-carbonyl)piperazin-1-yl)-7-oxo-2,7-dihydro-4H-[1,2,3]triazolo[4,5-b]pyridin-4-yl)acetamide] was 5 to 50 nM; that for `CCc1c(N2CCN(C(=O)c3ncnc(C)c3O)[C@H]3CC[C@@H]32)c(=O)c2nn(-c3ccnc(OC)c3)nc2n1CC(=O)NC1CC2(CCC2)C1` [Compound I-86, 2-{5-ethyl-6-[(1S,6S)-5-(5-hydroxy-6-methylpyrimidine-4-carbonyl)-2,5-diazabicyclo[4.2.0]octan-2-yl]-2-(2-methoxypyridin-4-yl)-7-oxo-2H,4H,7H-[1,2,3]triazolo[4,5-b]pyridin-4-yl}-N-{spiro[3.3]heptan-2-yl}acetamide] was 5 to 50 nM.
`CCc1c(N2CCN(C(=O)c3c(OC)ccc4ncoc34)[C@H]3CC[C@@H]32)c(=O)c2nn(C3=CCOCC3)nc2n1CC(=O)NC12CC(C3CC3)(C1)C2` [Compound I-192, N-{3-cyclopropylbicyclo[1.1.1]pentan-1-yl}-2-[2-(3,6-dihydro-2H-pyran-4-yl)-5-ethyl-6-[(1S,6S)-5-(6-methoxy-1,3-benzoxazole-7-carbonyl)-2,5-diazabicyclo[4.2.0]octan-2-yl]-7-oxo-2H,4H,7H-[1,2,3]triazolo[4,5-b]pyridin-4-yl]acetamide]: in experiment [2], the EC50 was not above 500 nM.
As to `CCc1c(N2CCN(C(=O)c3c(O)c(F)cc4ncoc34)[C@H]3CC[C@@H]32)c(=O)c2nn(C3=CCOCC3)nc2n1CC(=O)NC12CC(C3CC3)(C1)C2` [Compound I-194, N-{3-cyclopropylbicyclo[1.1.1]pentan-1-yl}-2-[2-(3,6-dihydro-2H-pyran-4-yl)-5-ethyl-6-[(1S,6S)-5-(5-fluoro-6-hydroxy-1,3-benzoxazole-7-carbonyl)-2,5-diazabicyclo[4.2.0]octan-2-yl]-7-oxo-2H,4H,7H-[1,2,3]triazolo[4,5-b]pyridin-4-yl]acetamide], in experiment [2], the EC50 is not above 500 nM.
Still for that read-out and setting: the value for `CCc1c(N2CCN(C(=O)c3ncnc(C)c3O)[C@H]3CC[C@@H]32)c(=O)c2nn(C3=CCOCC3)nc2n1CC(=O)NC12CC(C(C)(C)C)(C1)C2` [Compound I-196, N-{3-tert-butylbicyclo[1.1.1]pentan-1-yl}-2-[2-(3,6-dihydro-2H-pyran-4-yl)-5-ethyl-6-[(1S,6S)-5-(5-hydroxy-6-methylpyrimidine-4-carbonyl)-2,5-diazabicyclo[4.2.0]octan-2-yl]-7-oxo-2H,4H,7H-[1,2,3]triazolo[4,5-b]pyridin-4-yl]acetamide] was not above 500 nM; that for `CCc1c(N2CCN(C(=O)c3ncnc(C)c3O)[C@H]3CC[C@@H]32)c(=O)c2nn(C3=CCOCC3)nc2n1CC(=O)NC1CC2(CCC2)C1` [Compound I-197, 2-[2-(3,6-dihydro-2H-pyran-4-yl)-5-ethyl-6-[(1S,6S)-5-(5-hydroxy-6-methylpyrimidine-4-carbonyl)-2,5-diazabicyclo[4.2.0]octan-2-yl]-7-oxo-2H,4H,7H-[1,2,3]triazolo[4,5-b]pyridin-4-yl]-N-{spiro[3.3]heptan-2-yl}acetamide] was not above 500 nM.
On to `CCc1c(N2CCN(C(=O)c3c(COC)cccc3OC)[C@H]3CC[C@@H]32)c(=O)c2nn(C3=CCOCC3)nc2n1CC(=O)NC12CC(C3CC3)(C1)C2` [Compound I-212, N-{3-cyclopropylbicyclo[1.1.1]pentan-1-yl}-2-[2-(3,6-dihydro-2H-pyran-4-yl)-5-ethyl-6-[(1S,6S)-5-[2-methoxy-6-(methoxymethyl)benzoyl]-2,5-diazabicyclo[4.2.0]octan-2-yl]-7-oxo-2H,4H,7H-[1,2,3]triazolo[4,5-b]pyridin-4-yl]acetamide], for which, in experiment [2], the EC50 was 500 to 2000 nM.
